Data on one compound can be found in US20250388542A1, “ANALOGUES OF PENTAMIDINE AND USES THEREFOR” (Auransa Inc., priority 2018, published 2025).

SMILES strings stand for the structures.

One series has as its system NCI-H209. Briefly: CellTiter-Glo luminescent cell viability assay. As to conditions: Homo sapiens. Type of series: cell-based. On the procedure:
(§1) The objective of this study is to investigate potential cell killing effect of Compounds 1-15 on 3 cancer cell lines. 50% inhibition concentration (IC50) was determined for these compounds in various cancer cell lines using CellTiter-Glo™ luminescent cell viability assay at different compound concentrations. Each cell line (e.g., NCI-H209; NCI-H69; and SW1271) was treated with Compounds 1-15 and culture medium contains 0.2% [v/v] DMSO vehicle control. All the cells were cultured in the media supplemented with 10-20% fetal bovine serum at 37° C., 5% CO2 and 95% humidity.

A further series concerns NCI-H69. Briefly: CellTiter-Glo luminescent cell viability assay. Type of series: cell-based. As to conditions: Homo sapiens. On the procedure: as §1
Another series relates to HCCLM3. Briefly: CellTiter-Glo cell viability, liver cell lines, 8 days. The class given is cell-based. As to conditions: Homo sapiens, 192 h; HCCLM3, 8 days. The method, then: (§2) The objective of this study is to investigate the effect of Compound 1 on cell viability of various types of liver cancer. Ten (10) different liver cancer cell lines were employed in the study. Each liver cell line shown in Table 4 was treated with Compound 1, pentamidine, as reference control, a standard of care (cisplatin) and culture medium contains 0.2% [v/v] DMSO vehicle control and IC50 values were obtained as described above. The raw data values from the CellTiter-Glo™ cell viability assay expressed in relative luminescence units were normalized to the vehicle for each individual plate, and any reduction in luminescence indicated a decrease in viability (%). The data was analyzed in GraphPad PRISM using a non-linear sigmoidal plot with variable slope (asymmetric four-point linear regression), and an IC50 value for each compound was generated. The experiment tested pentamidine, compound 1, and standard-of-care control Cisplatin in full growth media for 8 days. Cells were initially treated with the test compounds on Day 0, and the cells were then replenished with fresh compound dilutions on Day 3. Pentamidine, Compound 1, and cisplatin were tested at 9 concentration points; 100, 33.33, 11.11, 3.70, 1.23, 0.41, 0.14, 0.05, and 0.02 μM (final DMSO concentration=0.5%). In particular, the IC50 values of pentamidine and Compound 1 were 0.8 and 0.6 μM in Hep3B-luc, respectively.

The test system of the next series is HEP3B2.7-1. The series is described as above. Type of series: cell-based. As to conditions: HEP3B2.7-1, Table 4. On the procedure: as §2
The subject of a further series is HUH1. Described as above. Type of series: cell-based. As to conditions: Homo sapiens, HuH-1, 192 h; HUH1, 8 days. The method, then: as §2
The next series deals with HUH7. The series is described as above. Type of series: cell-based. As to conditions: Homo sapiens, Huh-7, 192 h; HUH7, 8 days. On the procedure: as §2
Another series relates to Hep3B. The series is described as above. The class given is cell-based. As to conditions: Homo sapiens, 192 h. The method, then: as §2
The next series deals with HepG2. The series is described as above. Type of series: cell-based. As to conditions: Homo sapiens, 192 h; HepG2, 8 days. On the procedure: as §2
The subject of the next series is MHCC97H. Described as above. Type of series: cell-based. As to conditions: Homo sapiens, 192 h. On the procedure: as §2
The next series concerns SK-HEP-1. The series is described as above. As to conditions: Homo sapiens. The class given is cell-based. The method, then:
as §2

A short description of series [1]: Tolerance in non-tumor bearing BALB/c nude mice. The class given is in vivo. On the procedure:
The objective of this research is to assess Compound 1 tolerance in non-tumor bearing mice in BALB/c nude mice. Compound 1 exposure in plasma, liver, kidney, colon and bladder as well as serum-derived blood chemistries were tested.
Thirty-six (36) female BALB/c nude mice of age 6-8 weeks having body weight of around 19-23 g were kept in individual ventilation cages at constant temperature (20˜26° C.) and humidity (40-70%) with 3 animals per cage. Animals had free access to irradiation sterilized dry granule food and sterile drinking water during the entire study period.
After grouping, the animals were checked daily for morbidity and mortality. At the time of routine monitoring, the animals were measured for any effects on behavior such as mobility, food and water consumption, body weight gain/loss. Body weights were measured daily. Death and other clinical signs were recorded.
Animals from each group were tested and samples collected at two different time points for blood chemistry tests as well as compound concentration in plasma, kidney, liver, colon and bladder. The first sampling was performed right before the last dose (0 h) on Day 21; and the second sampling was performed 1 hour after the last dose (1 h) on day 21. Detailed descriptions for sampling methods are as follows: […]

Series [2] deals with COLO 205-Luc colon cancer tumor cells. As to conditions: mouse, in vivo.
Procedure: Approximately 2.0× Luciferase stably expressing colon cancer tumor cells (COLO 205-Luc) cells suspended in 30 μl of DPBS were injected into cecum wall of BALB/c nude mice.
The animals were assigned into groups using an Excel-based randomization software performing stratified randomization based upon their bioluminescence intensity. Treatment was initiated according to the predetermined regimen as shown in the experimental design table.
Mice were administered compound 1 at 10 mg/k daily, 20 mg/kg daily, 10 mg/kg twice daily, 20 mg/kg twice daily, or 40 mg/kg daily.
The major efficacy endpoint was bioluminescence (intensity values and change from baseline). The surgically inoculated mice were weighed and intraperitoneally administered luciferin at a dose of 150 mg/kg. Ten minutes after the luciferin injection, the animals were pre-anesthetized with the mixture gas of oxygen and isoflurane. When the animals were in a complete anesthetic state, the mice were moved into the imaging chamber for bioluminescence measurements with an IVIS (Lumina II) imaging system. The bioluminescence of the whole animal body, including primary and metastatic tumors, was measured and recorded once per week.
Tumor Growth Inhibition (TGI) was calculated for each group using the formula: TGI (%)=[1−(Ti−T0)/(Vi−V0)]×100; Ti is the average tumor bioluminescence value of a treatment group on a given day, T0 is the average tumor bioluminescence value of the treatment group on day 0, Vi is the average tumor bioluminescence value of the vehicle control group on the same day with Ti, and V0 is the average tumor bioluminescence value of the vehicle group on day 0.
For comparison among three or more groups, a one-way ANOVA was performed. When a non-significant F-statistics (a ratio of treatment variance to the error variance) was obtained, comparisons between groups were carried out with Dunnett t(2-sided). All data were analyzed using SPSS 17.0. p<0.05 is considered to be statistically significant.

On to `N=C(N)c1ccc(OCCCCCOc2ccc(C(=N)N)nc2)cc1` [Compound 1, 5-(5-(4-carbamimidoylphenoxy)pentyloxy)picolinimidamide], for which the IC50 in the series on NCI-H209 was 1.7 µM; in the series with NCI-H69, 0.858 µM; with HCCLM3, 9.65 µM; in the series with HEP3B2.7-1, 0.32 µM; with HUH1 it was 2.95 µM; with HUH7, 0.53 µM. Also, the half-inhibitory concentration (IC50) with Hep3B came out at 0.18 µM; in the series with HepG2, 0.31 µM; in the series on MHCC97H it was 5.32 µM; in the series on SK-HEP-1 (SK-HEP1, SK-HEP-1, first listing in Table 4) it was 1.4 µM; in the series with SK-HEP-1 (SK-HEP1, SK-HEP-1, second listing in Table 4), 0.63 µM. The “tolerability, body weight loss” value in [1] (5 mg/kg QD, 10 mg/kg QD, 10 mg/kg Q2D and 20 mg/kg QD, PO, 21 days) is “well tolerated with no obvious body weight loss”. Further, the “body weights compared with vehicle control group” value in [1] (40 mg/kg QD PO, day 20 and 21) is “lower in a statistically significant manner at day 20 and 21”. Besides, in [2], the deaths and morbidity result is “no deaths and no morbidity”.
